Results as given in PubChem BioAssay (NCI).
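Compound exposure: 48 hours, 5 concentrations, 96-well plates. TGI: concentration producing complete growth inhibition.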

Tests used:
Test in all cases: growth of human tumour cells (NCI), 48 h
UO-31 renal = test system: UO-31 renal
NCI/ADR-RES ovarian = test system: NCI/ADR-RES ovarian
UACC-62 melanoma = test system: UACC-62 melanoma
UACC-257 melanoma = test system: UACC-257 melanoma
KM12 colon = test system: KM12 colon
NCI-H522 lung = test system: NCI-H522 lung
PC-3 prostate = test system: PC-3 prostate
SF-295 CNS = test system: SF-295 CNS
K-562 leukemia = test system: K-562 leukemia
NCI-H460 lung = test system: NCI-H460 lung
HL-60(TB) leukemia = test system: HL-60(TB) leukemia
786-0 renal = test system: 786-0 renal
HCT-116 colon = test system: HCT-116 colon
RXF 393 renal = test system: RXF 393 renal
HS 578T breast = test system: HS 578T breast
RPMI-8226 leukemia = test system: RPMI-8226 leukemia
A498 renal = test system: A498 renal
SNB-75 CNS = test system: SNB-75 CNS
SW-620 colon = test system: SW-620 colon
HOP-62 NSCLC = test system: HOP-62 NSCLC
M14 melanoma = test system: M14 melanoma
OVCAR-5 ovarian = test system: OVCAR-5 ovarian
T-47D breast = test system: T-47D breast
SR leukemia = test system: SR leukemia
TK-10 renal = test system: TK-10 renal
NCI-H226 lung = test system: NCI-H226 lung
IGROV1 ovarian = test system: IGROV1 ovarian
U251 CNS = test system: U251 CNS
MDA-MB-231 breast = test system: MDA-MB-231 breast
SK-MEL-2 melanoma = test system: SK-MEL-2 melanoma
MDA-MB-435 = test system: MDA-MB-435
OVCAR-8 ovarian = test system: OVCAR-8 ovarian
HCC-2998 colon = test system: HCC-2998 colon
SNB-19 CNS = test system: SNB-19 CNS
SN12C renal = test system: SN12C renal
OVCAR-4 ovarian = test system: OVCAR-4 ovarian
DU-145 prostate = test system: DU-145 prostate
SK-MEL-28 melanoma = test system: SK-MEL-28 melanoma
HT29 colon = test system: HT29 colon
SK-MEL-5 melanoma = test system: SK-MEL-5 melanoma
CAKI-1 renal = test system: CAKI-1 renal
CCRF-CEM leukemia = test system: CCRF-CEM leukemia
SF-539 CNS = test system: SF-539 CNS
MOLT-4 leukemia = test system: MOLT-4 leukemia
HOP-92 NSCLC = test system: HOP-92 NSCLC
SK-OV-3 ovarian = test system: SK-OV-3 ovarian
NCI-H23 lung = test system: NCI-H23 lung
LOX IMVI melanoma = test system: LOX IMVI melanoma
BT-549 breast = test system: BT-549 breast
A549 NSCLC = test system: A549 NSCLC
MDA-N = test system: MDA-N
ACHN renal = test system: ACHN renal
MCF7 breast = test system: MCF7 breast
SF-268 CNS = test system: SF-268 CNS
OVCAR-3 ovarian = test system: OVCAR-3 ovarian
HCT-15 colon = test system: HCT-15 colon
EKVX NSCLC = test system: EKVX NSCLC
COLO 205 colon = test system: COLO 205 colon

`CCOC(=O)c1c(Sc2ccc([N+](=O)[O-])cc2[N+](=O)[O-])nc2c3ccccc3ccn12` was tested, and the TGI (UO-31 renal) was greater than 100 µM, the TGI (NCI/ADR-RES ovarian) was greater than 100 µM and the TGI (UACC-62 melanoma) was greater than 65.9 µM. The TGI (UACC-257 melanoma) was greater than 100 µM, the TGI (KM12 colon) was greater than 100 µM and the TGI (NCI-H522 lung) was greater than 100 µM. The TGI (PC-3 prostate) was greater than 100 µM, the TGI (SF-295 CNS) was greater than 100 µM and the TGI (K-562 leukemia) was greater than 100 µM. It also gave a TGI (NCI-H460 lung) greater than 100 µM, a TGI (HL-60(TB) leukemia) greater than 100 µM and a TGI (786-0 renal) greater than 38.6 µM. It also gave a TGI (HCT-116 colon) greater than 100 µM, a TGI (RXF 393 renal) greater than 92.9 µM and a TGI (HS 578T breast) greater than 92.3 µM. The TGI (RPMI-8226 leukemia) was greater than 100 µM, the TGI (A498 renal) was greater than 100 µM and the TGI (SNB-75 CNS) was greater than 100 µM. For the same molecule, the TGI (SW-620 colon) was greater than 100 µM, the TGI (HOP-62 NSCLC) was greater than 59.4 µM and the TGI (M14 melanoma) was greater than 100 µM. It also gave a TGI (OVCAR-5 ovarian) greater than 100 µM, a TGI (T-47D breast) greater than 100 µM and a TGI (SR leukemia) greater than 100 µM. It also gave a TGI (TK-10 renal) greater than 100 µM, a TGI (NCI-H226 lung) greater than 100 µM and a TGI (IGROV1 ovarian) greater than 31.6 µM. For the same molecule, the TGI (U251 CNS) was greater than 100 µM, the TGI (MDA-MB-231 breast) was greater than 100 µM and the TGI (SK-MEL-2 melanoma) was greater than 100 µM. For the same molecule, the TGI (MDA-MB-435) was greater than 100 µM, the TGI (OVCAR-8 ovarian) was greater than 100 µM and the TGI (HCC-2998 colon) was greater than 100 µM. It also gave a TGI (SNB-19 CNS) greater than 100 µM, a TGI (SN12C renal) greater than 100 µM and a TGI (OVCAR-4 ovarian) greater than 100 µM. The TGI (DU-145 prostate) was greater than 100 µM, the TGI (SK-MEL-28 melanoma) was greater than 100 µM and the TGI (HT29 colon) was greater than 100 µM. The TGI (SK-MEL-5 melanoma) was greater than 100 µM, the TGI (CAKI-1 renal) was greater than 100 µM and the TGI (CCRF-CEM leukemia) was greater than 100 µM. It also gave a TGI (SF-539 CNS) greater than 94.8 µM, a TGI (MOLT-4 leukemia) greater than 100 µM and a TGI (HOP-92 NSCLC) of 41.3 µM. For the same molecule, the TGI (SK-OV-3 ovarian) was 69.7 µM, the TGI (NCI-H23 lung) was greater than 100 µM and the TGI (LOX IMVI melanoma) was greater than 100 µM. It also gave a TGI (BT-549 breast) greater than 100 µM, a TGI (A549 NSCLC) greater than 100 µM and a TGI (MDA-N) greater than 100 µM. The TGI (ACHN renal) was greater than 100 µM, the TGI (MCF7 breast) was greater than 100 µM and the TGI (SF-268 CNS) was greater than 100 µM. For the same molecule, the TGI (OVCAR-3 ovarian) was greater than 100 µM, the TGI (HCT-15 colon) was greater than 100 µM and the TGI (EKVX NSCLC) was greater than 100 µM. The TGI (COLO 205 colon) was greater than 100 µM.
